Test results as given in PMC11243685, “Synthesis and Enzymatic Evaluation of a Small Library of Substituted Phenylsulfonamido-Alkyl Sulfamates towards Carbonic Anhydrase II” (Molecules, 2024).

What was measured:
[1] = target: T1, bovine carbonic anhydrase II (Bos taurus, UniProt P00921); assay: Enzymatic assay of bCA II inhibition, absorbance at 415 nm; format: biochemical; conditions: for inhibition at 1 µM: 1 μM concentration of the inhibitor, triplicate with three technical replicas; for Ki: CA II, from Lineweaver–Burk, Dixon and Cornish Bowden plots, read-out: Inhibition constant Ki;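 on all read-outs here: enzyme is carbonic anhydrase II isolated from bovine erythrocytes, with its activity followed photometrically at 415 nm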
T1 construct: carbonic anhydrase II (bCAII, ≥3000 W-A units/mg from bovine erythrocytes) from Sigma; purchased Sigma (Taufkirchen, Germany); host or cells: isolated from bovine erythrocytes
T1 sequence (P00921 whole entry): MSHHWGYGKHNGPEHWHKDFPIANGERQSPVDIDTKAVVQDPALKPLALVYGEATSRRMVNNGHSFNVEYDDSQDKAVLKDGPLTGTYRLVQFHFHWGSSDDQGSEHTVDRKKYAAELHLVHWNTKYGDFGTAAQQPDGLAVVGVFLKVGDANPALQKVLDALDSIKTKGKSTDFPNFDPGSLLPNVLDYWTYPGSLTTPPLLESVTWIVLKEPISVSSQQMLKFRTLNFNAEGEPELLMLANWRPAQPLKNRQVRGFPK
Description: The enzymatic assays have been performed with carbonic anhydrase II (bCAII, ≥3000 W-A units/mg from bovine erythrocytes) from Sigma (Taufkirchen, Germany) using a BMG Labtech Spectrostar Omega apparatus (BMG Labtech, Ortenberg, Germany) measuring λ = 415 nm. Conditions have been described previously [72]. Ki and Ki′ values were determined from Lineweaver–Burk, Dixon and Cornish Bowden plots, respectively.

melting point [°C]	inhibition at 1 µM ([1]; bCA II) [%]	Ki [1] [nM]	mode of inhibition ([1]; bCA II)	SMILES
64 to 66	39.9 ± 0.4			NS(=O)(=O)OCCCNS(=O)(=O)c1ccccc1 [2b, 3-(Phenylsulfonamido]propyl Sulfamate]
64 to 66	56 ± 0.5			NS(=O)(=O)OCCCCCCNS(=O)(=O)c1ccccc1 [5b, 6-(Phenylsulfonamido]hexyl Sulfamate]
59 to 61	56 ± 0.8			NS(=O)(=O)OCCCCCCCNS(=O)(=O)c1ccccc1 [6b, 7-(Phenylsulfonamido]heptyl Sulfamate]
77 to 78	60.2 ± 0.7			NS(=O)(=O)OCCCCCCCCNS(=O)(=O)c1ccccc1 [7b, 8-(Phenylsulfonamido]octyl Sulfamate]
82 to 84	55.4 ± 0.7			NS(=O)(=O)OCCCCCCCCCNS(=O)(=O)c1ccccc1 [8b, 9-(Phenylsulfonamido]nonyl Sulfamate]
89 to 91	10.7 ± 0.4			NS(=O)(=O)OCCCCCCCCCCNS(=O)(=O)c1ccccc1 [9b, 10-(Phenylsulfonamido]decyl Sulfamate]
95 to 97	7.2 ± 0.9			NS(=O)(=O)OCCCCCCCCCCCNS(=O)(=O)c1ccccc1 [10b, 11-(Phenylsulfonamido]undecyl Sulfamate]
102 to 103	5.9 ± 0.9			NS(=O)(=O)OCCCCCCCCCCCCNS(=O)(=O)c1ccccc1 [11b, 12-(Phenylsulfonamido]dodecyl Sulfamate]
79 to 81	75.8 ± 0.6	760 ± 30		Cc1ccc(S(=O)(=O)NCCOS(N)(=O)=O)cc1 [12b, 2-[(4-Methylphenyl)sulfonamido]ethyl Sulfamate]
86 to 87	63.8 ± 0.8			Cc1ccc(S(=O)(=O)NCCCOS(N)(=O)=O)cc1 [13b, 3-[(4-Methylphenyl)sulfonamido]propyl Sulfamate]
66 to 68	42.9 ± 0.1			Cc1ccc(S(=O)(=O)NCCCCOS(N)(=O)=O)cc1 [14b, 4-[(4-Methylphenyl)sulfonamido]butyl Sulfamate]
94 to 95	58.9 ± 0.2			Cc1ccc(S(=O)(=O)NCCCCCOS(N)(=O)=O)cc1 [15b, 5-[(4-Methylphenyl)sulfonamido]pentyl Sulfamate]
49 to 50	40.3 ± 0.7			Cc1ccc(S(=O)(=O)NCCCCCCOS(N)(=O)=O)cc1 [16b, 6-[(4-Methylphenyl)sulfonamido]hexyl Sulfamate]
85 to 86	42.8 ± 0.5			Cc1ccc(S(=O)(=O)NCCCCCCCOS(N)(=O)=O)cc1 [17b, 7-[(4-Methylphenyl)sulfonamido]heptyl Sulfamate]
98 to 100	54.7 ± 0.6			Cc1ccc(S(=O)(=O)NCCCCCCCCOS(N)(=O)=O)cc1 [18b, 8-[(4-Methylphenyl)sulfonamido]octyl Sulfamate]
36 to 38	59.5 ± 0.1			Cc1cccc(S(=O)(=O)NCCOS(N)(=O)=O)c1 [19b, 2-[(3-Methylphenyl)sulfonamido]ethyl Sulfamate]
73 to 74	48.4 ± 0.1			Cc1cccc(S(=O)(=O)NCCCOS(N)(=O)=O)c1 [20b, 3-[(3-Methylphenyl)sulfonamido]propyl Sulfamate]
62 to 64	32.2 ± 0.6			Cc1cccc(S(=O)(=O)NCCCCOS(N)(=O)=O)c1 [21b, 4-[(3-Methylphenyl)sulfonamido]butyl Sulfamate]
67 to 68	49.1 ± 0.2			Cc1cccc(S(=O)(=O)NCCCCCOS(N)(=O)=O)c1 [22b, 5-[(3-Methylphenyl)sulfonamido]pentyl Sulfamate]
74 to 75	51.8 ± 0.7			Cc1cccc(S(=O)(=O)NCCCCCCOS(N)(=O)=O)c1 [23b, 6-[(3-Methylphenyl)sulfonamido]hexyl Sulfamate]
55 to 57	27.1 ± 0.9			Cc1cccc(S(=O)(=O)NCCCCCCCOS(N)(=O)=O)c1 [24b, 7-[(3-Methylphenyl)sulfonamido]heptyl Sulfamate]
54 to 56	38.8 ± 0.1			Cc1cccc(S(=O)(=O)NCCCCCCCCOS(N)(=O)=O)c1 [25b, 8-[(3-Methylphenyl)sulfonamido]octyl Sulfamate]
70 to 72	69.1 ± 0.7	1100 ± 30		Cc1ccccc1S(=O)(=O)NCCOS(N)(=O)=O [26b, 2-[(2-Methylphenyl)sulfonamido]ethyl Sulfamate]

melting point [°C]	inhibition at 1 µM ([1]; bCA II) [%]	Ki [1] [nM]	mode of inhibition ([1]; bCA II)	SMILES
68 to 70	50 ± 0.8			Cc1ccccc1S(=O)(=O)NCCCOS(N)(=O)=O [27b, 3-[(2-Methylphenyl)sulfonamido]propyl Sulfamate]
81 to 82	63.2 ± 0.4	840 ± 20		CC(C)c1ccc(S(=O)(=O)NCCOS(N)(=O)=O)cc1 [33b, 2-[(4-Isopropylphenyl)sulfonamido]ethyl Sulfamate]
83 to 84	60.3 ± 0.9			CC(C)c1ccc(S(=O)(=O)NCCCOS(N)(=O)=O)cc1 [34b, 3-[(4-Isopropylphenyl)sulfonamido]propyl Sulfamate]
95 to 97	43.7 ± 0.4			CC(C)c1ccc(S(=O)(=O)NCCCCOS(N)(=O)=O)cc1 [35b, 4-[(4-Isopropylphenyl)sulfonamido]butyl Sulfamate]
95 to 97	40.8 ± 0.6			CC(C)c1ccc(S(=O)(=O)NCCCCCOS(N)(=O)=O)cc1 [36b, 5-[(4-Isopropylphenyl)sulfonamido]pentyl Sulfamate]
102 to 103	45.9 ± 0.7			CC(C)c1ccc(S(=O)(=O)NCCCCCCOS(N)(=O)=O)cc1 [37b, 6-[(4-Isopropylphenyl)sulfonamido]hexyl Sulfamate]
70 to 72	30.3 ± 0.1			CC(C)c1ccc(S(=O)(=O)NCCCCCCCOS(N)(=O)=O)cc1 [38b, 7-[(4-Isopropylphenyl)sulfonamido]heptyl Sulfamate]
69 to 70	28.1 ± 0.5			CC(C)c1ccc(S(=O)(=O)NCCCCCCCCOS(N)(=O)=O)cc1 [39b, 8-[(4-Isopropylphenyl)sulfonamido]octyl Sulfamate]
92 to 93	75.6 ± 0.4	670 ± 50	competitive inhibitor	CC(C)(C)c1ccc(S(=O)(=O)NCCOS(N)(=O)=O)cc1 [49b, 2-[(4-(tert-Butyl)phenyl)sulfonamido]ethyl Sulfamate]
85 to 86	63.4 ± 0.6			CC(C)(C)c1ccc(S(=O)(=O)NCCCOS(N)(=O)=O)cc1 [50b, 3-[(4-(tert-Butyl)phenyl)sulfonamido]propyl Sulfamate]
100 to 102	44.9 ± 0.4			CC(C)(C)c1ccc(S(=O)(=O)NCCCCOS(N)(=O)=O)cc1 [51b, 4-[(4-(tert-Butyl)phenyl)sulfonamido]butyl Sulfamate]
88 to 89	35.9 ± 0.4			CC(C)(C)c1ccc(S(=O)(=O)NCCCCCOS(N)(=O)=O)cc1 [52b, 5-[(4-(tert-Butyl)phenyl)sulfonamido]pentyl Sulfamate]
89 to 90	29.1 ± 0.9			CC(C)(C)c1ccc(S(=O)(=O)NCCCCCCOS(N)(=O)=O)cc1 [53b, 6-[(4-(tert-Butyl)phenyl)sulfonamido]hexyl Sulfamate]
95 to 96	28.4 ± 0.4			CC(C)(C)c1ccc(S(=O)(=O)NCCCCCCCOS(N)(=O)=O)cc1 [54b, 7-[(4-(tert-Butyl)phenyl)sulfonamido]heptyl Sulfamate]
79 to 81	21.3 ± 1			CC(C)(C)c1ccc(S(=O)(=O)NCCCCCCCCOS(N)(=O)=O)cc1 [55b, 8-[(4-(tert-Butyl)phenyl)sulfonamido]octyl Sulfamate]
106 to 107	10 ± 0.6			CC(C)(C)c1ccc(S(=O)(=O)NCCCCCCCCCOS(N)(=O)=O)cc1 [56b, 9-[(4-(tert-Butyl)phenyl)sulfonamido]nonyl Sulfamate]
92 to 93	20.6 ± 0.6			CC(C)(C)c1ccc(S(=O)(=O)NCCCCCCCCCCOS(N)(=O)=O)cc1 [57b, 10-[(4-(tert-Butyl)phenyl)sulfonamido]decyl Sulfamate]
57 to 59	16 ± 0.4			CC(C)(C)c1cccc(S(=O)(=O)NCCCCCCCCOS(N)(=O)=O)c1 [64b, 8-[(3-(tert-Butyl)phenyl)sulfonamido]octyl Sulfamate]
113 to 114	43.1 ± 1.5			NS(=O)(=O)OCCCNS(=O)(=O)c1ccc(C2CCCCC2)cc1 [69b, 3-[(4-Cyclohexylphenyl)sulfonamido]propyl Sulfamate]
86 to 88	8.6 ± 0.6			NS(=O)(=O)OCCCCCCNS(=O)(=O)c1ccc(C2CCCCC2)cc1 [72b, 6-[(4-Cyclohexylphenyl)sulfonamido]hexyl Sulfamate]
88 to 89	32.1 ± 0.8			NS(=O)(=O)OCCCCCCCCCNS(=O)(=O)c1ccc(C2CCCCC2)cc1 [75b, 9-[(4-Cyclohexylphenyl)sulfonamido]nonyl Sulfamate]
85 to 86	32.6 ± 0.4			NS(=O)(=O)OCCCCCCCCNS(=O)(=O)c1ccc(C23CC4CC(CC(C4)C2)C3)cc1 [77b, 8-[(4-(Adamantan-1-yl)phenyl)sulfonamido]octyl Sulfamate]
76 to 79				O=S(=O)(NCCCCCCCCCCO)c1ccc(C23CC4CC(CC(C4)C2)C3)cc1 [79a, 4-(Adamantan-1-yl)-N-(10-hydroxydecyl)benzene Sulfonamide]
